The target of test [1] is T1, SFRP-1 (Homo sapiens, UniProt Q8N474).
T1 sequence (Q8N474 32-314): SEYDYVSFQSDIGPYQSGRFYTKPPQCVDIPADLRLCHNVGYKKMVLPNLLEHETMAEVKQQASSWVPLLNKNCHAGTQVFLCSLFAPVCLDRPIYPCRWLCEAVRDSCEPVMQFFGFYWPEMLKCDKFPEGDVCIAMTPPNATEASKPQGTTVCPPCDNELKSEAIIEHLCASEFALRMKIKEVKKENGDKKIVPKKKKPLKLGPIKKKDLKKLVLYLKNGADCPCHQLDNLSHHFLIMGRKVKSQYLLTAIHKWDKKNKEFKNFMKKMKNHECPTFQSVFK
The test is described as follows: Fluorescence polarization binding assay (competitive displacement of a probe compound from SFRP-1).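 Also: test compound competes with a fluorescent probe held by SFRP-1, seen as a drop in probe anisotropy after incubation in darkness, with anisotropy as function of rising compound dose.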 The settings on record: fluorescence anisotropy, 45 nM SFRP-1, 20 nM probe.

In test [2] the target is T1, SFRP-1. The test can be described thus: Cell-based assay for in vitro measurement of SFRP-1/SARP2 antagonist activity (U2OS cells co-transfected with 16x TCF-tk-Luciferase reporter, Wnt and hSFRP-1).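 As to all read-outs here: U2OS cells co-transfected with a TCF-tk luciferase reporter, a Wnt vector, hSFRP-1 or empty vector and CMV-βgal, luciferase luminescence read in cell lysates alongside βgal activity.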 The following applies: for fold induction at 10 µM: U2OS.
The mark [3] stands for this setting: read-out: Fold Induction with SFRP-1, U2OS cells, single dose 10 μM, luciferase reporter, fold induction over SFRP-1 control.
Setting [4] is: read-out: Fold Induction with SFRP-1.

Where two headings read alike, the source gives them in different places.

One may read the IC50 as the concentration that inhibits the measured activity by half. One may read the EC50 as the concentration giving half of the maximal effect.

In test [1], `CN(CCNS(=O)(=O)c1cc(S(=O)(=O)c2ccccc2)ccc1C(F)(F)F)C(=O)c1cccnc1Cl` [Example 851, 2-Chloro-N-methyl-N-[2-({[5-(phenylsulfonyl)-2-(trifluoromethyl)phenyl]sulfonyl}amino)ethyl]nicotinamide] showed an IC50 of 400 nM. For the same molecule, the EC50 in test [2] was found to be 1510 nM. For the same molecule, the fold induction at 10 µM in test [2] (setting [3]) came out at 3.6.

In turn, `CN(CCNS(=O)(=O)c1cc(S(=O)(=O)c2ccccc2)ccc1C(F)(F)F)C(=O)C(C)(C)C` [Example 852, N,2,2-trimethyl-N-[2-({[5-(phenylsulfonyl)-2-(trifluoromethyl)phenyl]sulfonyl}amino)ethyl]propanamide] yielded an IC50 in test [1] of 300 nM. The molecule also had an EC50 in test [2] of 1650 nM. Besides, in test [2] (setting [3]), the fold induction at 10 µM was 3.3.

`O=C(O)c1cccc(NC(=S)N2CCC(NS(=O)(=O)c3cc(S(=O)(=O)c4ccccc4)ccc3C(F)(F)F)CC2)c1` [Example 855, 3-({[4-({[5-(phenylsulfonyl)-2-(trifluoromethyl)phenyl]sulfonyl}amino)piperidin-1-yl]carbonothioyl}amino)benzoic acid] came in with an IC50 in test [1] of 40 nM. For the same molecule, a half-maximal response in test [2] (EC50) required 137 nM. The fold induction at 10 µM in test [2] (setting [3]) turned out to be 3.4.

For the molecule `Cc1cc(C(=O)N2CCC(NS(=O)(=O)c3cc(S(=O)(=O)c4ccccc4)ccc3C(F)(F)F)CC2)cc(Cl)n1` [Example 856, N-[1-(2-chloro-6-methylisonicotinoyl)piperidin-4-yl]-5-(phenylsulfonyl)-2-(trifluoromethyl)benzenesulfonamide], the IC50 in test [1] turned out to be 100 nM. The same molecule returned an EC50 in test [2] of 360 nM. Further, the fold induction at 10 µM in test [2] (setting [3]) was 4.2.

Molecule `O=C(c1cc(Cl)nc(Cl)c1)N1CCC(NS(=O)(=O)c2cc(S(=O)(=O)c3ccccc3)ccc2C(F)(F)F)CC1` [Example 857, N-[1-(2,6-dichloroisonicotinoyl)piperidin-4-yl]-5-(phenylsulfonyl)-2-(trifluoromethyl)benzenesulfonamide] returned an IC50 in test [1] of 150 nM. Also, the EC50 in test [2] turned out to be 1190 nM. Further, in test [2] (setting [3]), the fold induction at 10 µM is 4.4.

Regarding `CC(C)c1ccc(S(=O)(=O)c2ccc(F)cc2)cc1S(=O)(=O)NC1CCS(=O)(=O)CC1` [Example 858, N-(1,1-dioxidotetrahydro-2H-thiopyran-4-yl)-5-[(4-fluorophenyl)sulfonyl]-2-isopropylbenzenesulfonamide], in test [1], the IC50 is 1400 nM. In addition, in test [2] (setting [3]), the fold induction at 10 µM amounted to 3.8.

In test [1], `CNc1ccccc1S(=O)(=O)c1ccc(C(F)(F)F)c(S(=O)(=O)NC2CCNCC2)c1` [Example 861, 5-{[2-(methylamino)phenyl]sulfonyl}-N-piperidin-4-yl-2-(trifluoromethyl)benzenesulfonamide] yielded an IC50 of 600 nM. Further, the EC50 in test [2] turned out to be 1780 nM. Further, the fold induction at 10 µM in test [2] (setting [3]) came to 4.

In test [1], `CN(C)c1ccccc1S(=O)(=O)c1ccc(C(F)(F)F)c(S(=O)(=O)NC2CCNCC2)c1` [Example 862, 5-{[2-(dimethylamino)phenyl]sulfonyl}-N-piperidin-4-yl-2-(trifluoromethyl)benzenesulfonamide] came in with an IC50 of 1300 nM. Also, the fold induction at 10 µM in test [2] (setting [3]) is 4.

For the molecule `O=S(=O)(NCCc1nn[nH]n1)c1cc(S(=O)(=O)c2ccccc2)ccc1C(F)(F)F` [Example 863, 5-(phenylsulfonyl)-N-[2-(2H-tetrazol-5-yl)ethyl]-2-(trifluoromethyl)benzenesulfonamide], the IC50 in test [1] worked out at 1800 nM. Moreover, the fold induction at 10 µM in test [2] (setting [3]) was found to be 2.4.

`CCC(CC)C(=O)N(C)CCNS(=O)(=O)c1cc(S(=O)(=O)c2ccccc2)ccc1C(F)(F)F` [Example 864, 2-ethyl-N-methyl-N-[2-({[5-(phenylsulfonyl)-2-(trifluoromethyl)phenyl]sulfonyl}amino)ethyl]butanamide] came in with an IC50 in test [1] of 300 nM. In addition, in test [2], the response was half-maximal at 1800 nM (EC50). Besides, in test [2] (setting [3]), the fold induction at 10 µM amounted to 3.2.

Take `CCCCOC(=O)N(C)CCNS(=O)(=O)c1cc(S(=O)(=O)c2ccccc2)ccc1C(F)(F)F` [Example 865, butyl methyl[2-({[5-(phenylsulfonyl)-2-(trifluoromethyl)phenyl]sulfonyl}amino)ethyl]carbamate]: the IC50 in test [1] turned out to be 300 nM. For the same molecule, the EC50 in test [2] stood at 2140 nM. For the same molecule, in test [2] (setting [3]), the fold induction at 10 µM is 2.9.

As to `CN(CCNS(=O)(=O)c1cc(S(=O)(=O)c2ccccc2)ccc1C(F)(F)F)C(=O)NC1CCN(C(=O)OC(C)(C)C)CC1` [Example 866], the IC50 in test [1] is 800 nM. Besides, the fold induction at 10 µM in test [2] (setting [3]) turned out to be 4.6.

For `CN(CCNS(=O)(=O)c1cc(S(=O)(=O)c2ccccc2)ccc1C(F)(F)F)C(=O)OCC(C)(C)C` [Example 867, 2,2-dimethylpropyl methyl[2-({[5-(phenylsulfonyl)-2-(trifluoromethyl)phenyl]sulfonyl}amino)ethyl]carbamate], the IC50 in test [1] amounted to 800 nM. Moreover, the fold induction at 10 µM in test [2] (setting [3]) worked out at 2.8.

`O=S(=O)(NCC1(O)CCCCC1)c1cc(S(=O)(=O)c2ccccc2)ccc1C(F)(F)F` [Example 868, N-[(1-hydroxycyclohexyl)methyl]-5-(phenylsulfonyl)-2-(trifluoromethyl)benzenesulfonamide] displayed an IC50 in test [1] of 2500 nM. Further, the response in test [2] was half-maximal at 2130 nM (EC50). The fold induction at 10 µM in test [2] (setting [3]) was 2.4.

In the case of `O=S(=O)(NC1CCNCC1)c1cc(S(=O)(=O)c2ccccc2NCCO)ccc1C(F)(F)F` [Example 869, 5-({2-[(2-hydroxyethyl)amino]phenyl}sulfonyl)-N-piperidin-4-yl-2-(trifluoromethyl)benzenesulfonamide], in test [1], the IC50 was 1200 nM. This molecule also gave an EC50 in test [2] of 1760 nM. For the same molecule, in test [2] (setting [3]), the fold induction at 10 µM worked out at 3.5.

On to `CC(C)COC(=O)N(C)CCNS(=O)(=O)c1cc(S(=O)(=O)c2ccccc2)ccc1C(F)(F)F` [Example 870, isobutyl methyl[2-({[5-(phenylsulfonyl)-2-(trifluoromethyl)phenyl]sulfonyl}amino)ethyl]carbamate], for which, in test [1], the IC50 stood at 800 nM. Further, the fold induction at 10 µM in test [2] (setting [3]) is 2.5.

Consider `CN(CCNS(=O)(=O)c1cc(S(=O)(=O)c2ccccc2)ccc1C(F)(F)F)C(=O)Oc1cccc(C(F)(F)F)c1` [Example 871, 3-(trifluoromethyl)phenyl methyl[2-({[5-(phenylsulfonyl)-2-(trifluoromethyl)phenyl]sulfonyl}amino)ethyl]carbamate], for which the IC50 in test [1] is 600 nM. This molecule also registered an EC50 in test [2] of 3810 nM. In addition, the fold induction at 10 µM in test [2] (setting [4]) worked out at 2.

In test [1], `CN(CCNS(=O)(=O)c1cc(S(=O)(=O)c2ccccc2)ccc1C(F)(F)F)C(=O)Oc1ccc(F)cc1` [Example 872, 4-fluorophenyl methyl[2-({[5-(phenylsulfonyl)-2-(trifluoromethyl)phenyl]sulfonyl]amino)ethyl]carbamate] showed an IC50 of 600 nM. Besides, in test [2], a half-maximal response (EC50) required 1950 nM. Also, the fold induction at 10 µM in test [2] (setting [4]) came out at 3.1.

In turn, `CN(CCNS(=O)(=O)c1cc(S(=O)(=O)c2ccccc2)ccc1C(F)(F)F)C(=O)Oc1ccc(Br)cc1` [Example 873, 4-bromophenyl methyl[2-({[5-(phenylsulfonyl)-2-(trifluoromethyl)phenyl]sulfonyl}amino)ethyl]carbamate] displayed an IC50 in test [1] of 1600 nM. In test [2] (setting [4]), the fold induction at 10 µM came to 2.1.

`CCCc1ccc(S(=O)(=O)c2ccccc2)cc1S(=O)(=O)NCCc1cccnc1` [Example 876, 5-(Phenylsulfonyl)-2-propyl-N-(2-pyridin-3-ylethyl)benzenesulfonamide] had an IC50 in test [1] of 800 nM. This molecule also gave an EC50 in test [2] of 1360 nM. Also, the fold induction at 10 µM in test [2] (setting [3]) was 3.

In the case of `O=C(O)c1ccc(CCNS(=O)(=O)c2cc(S(=O)(=O)c3ccccc3)ccc2C(F)(F)F)cc1` [Example 877, 4-[2-({[5-(phenylsulfonyl)-2-(trifluoromethyl)phenyl]sulfonyl}amino)ethyl]benzoic acid], the IC50 in test [1] is 30 nM. A half-maximal effect in test [2] (EC50) was put at 257 nM. Further, the fold induction at 10 µM in test [2] (setting [3]) came out at 3.9.

As for `CN(CCNS(=O)(=O)c1cc(S(=O)(=O)c2ccccc2)ccc1C(F)(F)F)C(=O)NC1CCNCC1` [Example 881, N-(2-{methyl[(piperidin-4-ylamino)carbonyl]amino}ethyl)-5-(phenylsulfonyl)-2-(trifluoromethyl)benzenesulfonamide], the IC50 in test [1] worked out at 280 nM. The molecule also registered an EC50 in test [2] of 850 nM. The fold induction at 10 µM in test [2] (setting [3]) was 3.4.

`CCOC(=O)CNC(=O)N(C)CCNS(=O)(=O)c1cc(S(=O)(=O)c2ccccc2)ccc1C(F)(F)F` [Example 882, ethyl N-({methyl[2-({[5-(phenylsulfonyl)-2-(trifluoromethyl)phenyl]sulfonyl}amino)ethyl]amino}carbonyl)glycinate] gave an IC50 in test [1] of 80 nM. Further, the EC50 in test [2] was found to be 627 nM. For the same molecule, the fold induction at 10 µM in test [2] (setting [3]) was determined as 3.4.

With `CN(CCNS(=O)(=O)c1cc(S(=O)(=O)c2ccccc2)ccc1C(F)(F)F)S(=O)(=O)c1cccc(C(=O)O)c1` [Example 883, 3-({methyl[2-({[5-(phenylsulfonyl)-2-(trifluoromethyl)phenyl]sulfonyl}amino)ethyl]amino}sulfonyl)benzoic acid], the IC50 in test [1] came out at 400 nM. This molecule also returned an EC50 in test [2] of 2570 nM. In addition, the fold induction at 10 µM in test [2] (setting [3]) came out at 2.7.

In test [1], `CC(C)c1ccc(S(=O)(=O)c2ccc(F)cc2)cc1S(=O)(=O)NCCC1CCCNC1` (centres unmarked) [Example 884, 5-[(4-fluorophenyl)sulfonyl]-2-isopropyl-N-(2-piperidin-3-ylethyl)benzenesulfonamide] gave an IC50 of 1600 nM. In test [2], this molecule showed an EC50 of 3400 nM. For the same molecule, the fold induction at 10 µM in test [2] (setting [3]) came out at 2.7.

(Values after patent US20060276464A1, “Diarylsulfone sulfonamides and use thereof” (Wyeth, priority 2005, published 2006).)
